Measured values as given in patent US6455587B1 (priority 2000, dated 2002).
pKi: −log10 of the molar value.

Biological target: T1, recombinant HIV-1 protease (Human immunodeficiency virus type 1 group M subtype B, UniProt P04585)
T1 construct: recombinant HIV-1 protease (final concentration 2.18 nM) purchased from Bachem Bioscience; purchased Bachem Bioscience
Assay: Enzymatic fluorometric (FRET) assay for determining the inhibition constant (Ki) against HIV protease
Type: biochemical
Conditions: fluorometric FRET assay, recombinant HIV-1 protease, pH 4.7, 31° C.; read-out: Ki
Source text: An Enzymatic assay for determining the inhibition constant (Ki) of synthetic compounds targeting the HIV protease may be carried out as follows: This is a fluorometric assay based on the cleavage by protease of a substrate carrying a donor group (EDANS) and an acceptor group (DABCYL) on each side of the cleavage site, interacting together through fluorescence resonance energy transfer (FRET). Cleavage of the substrate by protease stops energy exchange between the two groups, resulting in a time-dependent increase in fluorescence intensity that is linearly related to the extent of substrate hydrolysis.
The enzymatic assay is done at 31° C. in white 96-well fluorescence microplates, in a total volume of 200 μL per well. The apparatus used for analysis is a FL600 fluorescence microplate reader (Biotek Instruments). […] Excitation of the fluorophore is done at 340 nm and emission at 485 nm is recorded continuously during the reaction, allowing determination of the enzyme's initial velocity (v0). At the end of the 4 min incubation, the potential inhibitor at a defined concentration in a volume of 4 μL is added to the reaction, and fluorescence readings are taken for another 4 min, allowing determination of enzyme velocity (vi) in the presence of the inhibitory compound. Several concentrations of the putative inhibitors are tested in the assay. After calculation of v0 and vi, the inhibition constant (Ki) of the compound is determined using the equation of Henderson: [formula]
and [I]=inhibitor concentration, [S]=substrate concentration,
Km=Michaelis-Menten constant, Kiapp=apparent Ki
Graphs are traced and the Ki determined using GraphPad Prism software v. 3.0.

SMILES	pKi
O=C(N[C@@H](CCCCNS(=O)(=O)c1ccc(Br)cc1)C(=O)O)OCC1c2ccccc2-c2ccccc21 [Compound 16, Nε-(4-Bromobenzenesulfonyl)-Nα-(9-fluorenylmethoxycarbonyl)-L-lysine]	4.89
O=C(O)[C@H](CCCCNS(=O)(=O)c1ccc(Br)cc1)NS(=O)(=O)c1ccc(Br)cc1 [Compound 17, Nα,Nε-di-(4-Bromobenzenesulfonyl)-L-lysine]	5.11
O=C(N[C@@H](CNS(=O)(=O)c1ccc(Br)cc1)C(=O)O)OCC1c2ccccc2-c2ccccc21 [Compound 18, (S)-2-(9-Fluorenylmethoxycarbonylamino)-3-(4-bromobenzenesulfonylamino)-propanoic Acid]	4.12
NC(=O)C(CCCCNS(=O)(=O)c1ccc(Br)cc1)NC(=O)OCC1c2ccccc2-c2ccccc21 [Compound 20, (2R,2S)-(9-Fluorenylmethoxycarbonylamino)-6-(4-bromobenzenesulfonylamino)-1-hexanamide]	4.64
CC(C)CN(CCCC[C@H](NC(=O)OCC1c2ccccc2-c2ccccc21)C(=O)O)S(=O)(=O)c1ccc(Br)cc1 [Compound 21, Nα-(9-Fluorenylmethoxycarbonyl)-Nε-isobutyl-Nε-(4-bromobenzenesulfonyl)-L-lysine]	5.70
O=C(N[C@H](CO)CCCCNS(=O)(=O)c1ccc(Br)cc1)OCC1c2ccccc2-c2ccccc21 [Compound 22, (2S)-(9-Fluorenylmethoxycarbonylamino)-6-(4-bromobenzenesulfonylamino)-1-hexanol]	< 5.22
O=C(N[C@@H](CCCCNS(=O)(=O)c1ccc(Br)cc1)C(=O)O)c1cnc2cc(C(F)(F)F)ccc2c1O [Compound 23, Nα-(4-hydroxy-7-trifluoromethylquinoline-3-carbonyl)-Nε-(4-bromobenzenesulfonyl)-L-lysine]	< 4.30
O=C(N[C@@H](CCCCNS(=O)(=O)c1ccccc1Br)C(=O)O)OCC1c2ccccc2-c2ccccc21 [Compound 24, Nε-(2-Bromobenzenesulfonyl)-Nα-(9-fluorenylmethoxycarbonyl)-L-lysine]	4.44
CC(C)c1cc(C(C)C)c(S(=O)(=O)NCCCC[C@H](NC(=O)OCC2c3ccccc3-c3ccccc32)C(=O)O)c(C(C)C)c1 [Compound 25, Nε-(2,4,6-Triisopropylbenzenesulfonyl)-Nα-(9-fluorenylmethoxycarbonyl)-L-lysine]	< 5.51
Cc1cc(C)c(S(=O)(=O)NCCCC[C@H](NC(=O)OCC2c3ccccc3-c3ccccc32)C(=O)O)c(C)c1 [Compound 27, Nε-(2,4,6-Trimethylbenzenesulfonyl)-Nα-(9-fluorenylmethoxycarbonyl)-L-lysine]	< 4.30
O=C(N[C@@H](CCCCNS(=O)(=O)c1cccc2cccnc12)C(=O)O)OCC1c2ccccc2-c2ccccc21 [Compound 28, Nε-(8-Quinolinesulfonyl)-Nα-(9-fluorenylmethoxycarbonyl)-L-lysine]	4.82
O=C(Cc1c[nH]c2ccccc12)N[C@@H](CCCCNS(=O)(=O)c1ccc(Br)cc1)C(=O)O [Compound 29, Nα-(3-Indoleacetyl)-Nε-(4-bromobenzenesulfonyl)-L-lysine]	4.98
O=C(CC1c2ccccc2-c2ccccc21)N[C@@H](CCCCNS(=O)(=O)c1ccc(Br)cc1)C(=O)O [Compound 30, Nα-(9-Fluorenemethylcarbonyl)-Nε-(4-bromobenzenesulfonyl)-L-lysine]	4.15
O=C(N[C@@H](CCCCNS(=O)(=O)c1ccc2ccccc2c1)C(=O)O)OCC1c2ccccc2-c2ccccc21 [Compound 32, Nε-(2-Naphthalenesulfonyl)-Nα-(9-fluorenylmethoxycarbonyl)-L-lysine]	5.00
O=C(N[C@@H](CCCCNS(=O)(=O)Cc1ccccc1)C(=O)O)OCC1c2ccccc2-c2ccccc21 [Compound 33, Nε-Phenylmethylsulfonyl-Nα-(9-fluorenylmethoxycarbonyl)-L-lysine]	4.70
